Results published in paper PMC10638401, “Mannich-type modifications of (−)-cannabidiol and (−)-cannabigerol leading to new, bioactive derivatives” (Scientific Reports, 2023).
In brackets after ≈: the same amount, converted by molar mass. Where two headings read alike, the source gives them in different places.

Columns and labels:
[1] = system: Enterococcus faecalis 51299 VanB; assay: MIC, broth micro dilution
Protocol: (§6) According to CLSI guideline the Minimal Inhibitory Concentrations (MICs) of the prepared compounds were determined with the broth micro dilution method. After an overnight growth on 5% bovine blood agar plates at 35 °C bacterial strains were suspended in physiological saline in order to reach the density of 0.5 McFarland for inoculation. Stock solutions containing different concentrations of the substances were prepared in DMSO and H2O (1:1). These were twofold serially diluted from 256 to 0.5 mg/l in Mueller–Hinton broth, and 100 ml of each dilution was inoculated with 10 ml of each bacterial suspension.

[2] = system: Enterococcus faecalis 29 212; assay: MIC, broth micro dilution
Protocol: as §6

[3] = system: Staphylococcus epidermidis biofilm forming; assay: MIC, broth micro dilution
[4] = system: SARS-CoV-2; assay: SARS-CoV-2 cytopathic effect (CPE) inhibition assay in Vero E6 cells (XTT); type: cell-based; settings: for EC50: Vero E6 cells, 3 days post-infection, XTT
Protocol: (§1) CBD and CBG derivatives were further tested for their ability to inhibit SARS-CoV-2 replication in Vero E6 cells. Initially, the inhibition of virus-induced cytopathic effect was measured by addition of twofold serial dilutions of each derivative to the cells, followed by the infection with SARS-CoV-2 and determination of the cell viability 3 days post-infection by XTT assay. Concurrently, the cytotoxicity of each compound was assessed from identical dilutions in uninfected Vero E6 cells. To confirm anti-SARS-CoV-2 activity in the CPE inhibition assay, selected compounds were tested in immunofluorescence assay, where inhibition of SARS-CoV-2 replication was monitored as reduction in nucleoprotein expression using fluorescence microscope. […] Among the CBG derivatives, we can find quite cytotoxic and non-cytotoxic derivatives as well.
(§2) For CPE-based assay, two-fold fold serial dilutions of compounds from 100 µM were added in triplicate in a 384-well plate with 5000 Vero E6 cells in DMEM medium with 2% FBS, 100 U of penicillin/ml and 100 µg of streptomycin/ml (all Merck). After 1 h incubation SARS-CoV-2 (strain hCoV-19/Czech Republic/NRL_6632_2/2020) was added at multiplicity of infection […]. Following three days incubation at 37 °C in 5% CO2 the cell viability was determined by addition of XTT solution (Sigma-Aldrich) for 4 h and the absorbance was measured using EnVision plate reader (Perkin Elmer). Drug concentrations required to reduce viral cytopathic effect by 50% (EC50) were calculated using nonlinear regression from plots of percentage cell viability versus log10 drug concentration using GraphPad Prism (version 9.0.0, GraphPad Software, LLC). For immunofluorescence assay, two-fold fold serial dilutions of compounds from 100 µM were added in triplicate in 96-well plate with 15,000 Vero E6 cells plated day before in the same medium as above. After 1 h incubation, SARS-CoV-2 was added at multiplicity of infection 0.05 IU/cell. After three days of incubation, cells were fixed with 4% paraformaldehyde, permeabilized with 0.2% Triton X100 (both Merck), washed, incubated with anti-SARS-CoV-2antibody (mouse monoclonal antibody detecting SARS-CoV-2 nucleoprotein) for 2 h at room temperature. Followed by 1.5 h incubation with Cy3-labeled donkey anti-mouse IgG (Jackson ImmunoResearch Europe) and documented using fluorescence microscope with camera (Olympus). Images were processed in ImageJ software (NIH) and compound concentrations required to reduce fluorescence by 50% (EC50s) were calculated from plots of percentage of fluorescent cells versus log10 drug concentration using nonlinear regression analysis as above. Cytotoxicity was evaluated by incubating with the same two-fold serial dilutions of each compound as above with Vero E6 cells in 384-well plate.

[5] = system: MDA-MB-231 cells; assay: Antiproliferative MTT assay, 72 h; type: cell-based, human; settings: MDA-MB-231, 10 and 30 μM
Source text: (§3) Human adherent cancer cell lines A2780, MDA-MB-231 and MCF-7 were obtained from ECACC (European Collection of Cell Cultures, Salisbury, UK; Cat. No.93112519, 92020424, 86012803, respectively). SiHa cell line was obtained from ATCC (American Tissue Culture Collection, Manassas, Virginia, USA; Cat. No. HTB-35). All cell lines used for antiproliferative assay were maintained in Eagle's Minimum Essential Medium (EMEM) completed with 10% fetal bovine serum (FBS), 1% non-essential amino acid solution, and 1% penicillin, streptomycin, and amphotericin B mixture under cell culture conditions described before. All the utilized media and supplements were purchased from Lonza Group Ltd. (Basel, Switzerland).
(§4) The antiproliferative actions of the prepared molecules were determined by the same assay against a panel of adherent human cancer cell lines containing cervical (SiHa), ovarian (A2780) and breast (MCF7, MDA-MB-231) cell lines. Cells were plated onto 96-well microplates (5000 cells/well) and after an overnight incubation treated with two concentrations (10 or 30 μM) of the test substances for 72 h under cell culture conditions. Subsequently, MTT (5 mg/ml in phosphate buffer) was added to the wells, followed by incubation for 4 h. The supernatant was removed, the formazan crystals were then dissolved in 100 µl DMSO. Finally, absorbance values were determined by a microplate reader (BMG Labtech, Ortenberg, Germany) at 545 nm. Two independent measurements were performed with five parallel wells. Results were expressed as percentage of cell proliferation inhibition compared to non-treated control samples regarded as 0%.

[6] = system: A2780 cells; assay: Antiproliferative MTT assay, 72 h; type: cell-based, human; settings: A2780, 10 and 30 μM
Source text: as §3, §4

[7] = system: SiHa cells; assay: Antiproliferative MTT assay, 72 h; type: cell-based, human; settings: 10 and 30 μM
Source text: as §3, §4

[8] = system: MCF7 cells; assay: Antiproliferative MTT assay, 72 h; type: cell-based, human; settings: for antiproliferative activity (in words): MCF7, 10 and 30 μM
Source text: as §3, §4

[9] = system: Staphylococcus epidermidis mecA; assay: MIC, broth micro dilution
Protocol: as §6

[10] = system: Bacillus subtilis; assay: MIC, broth micro dilution
Protocol: as §6

[11] = system: MSSA (Methicillin Sensitive Staphylococcus aureus); assay: MIC, broth micro dilution
Protocol: as §6

[12] = system: Enterococcus faecalis 15 376 VanA; assay: MIC, broth micro dilution
Protocol: as §6

[13] = system: MRSA (Methicillin Resistant Staphylococcus aureus); assay: MIC, broth micro dilution
Protocol: as §6

[14] = system: Vero E6 cells; settings: uninfected Vero E6 cells, three days, XTT
[15] = in vitro; settings: African green monkey
[16] = system: SZ95 sebocytes; assay: Nile Red-assay, spontaneous sebaceous lipogenesis; type: cell-based, human; settings: applied alone, 48 h
[17] = system: SARS-CoV-2; assay: SARS-CoV-2 immunofluorescence assay (nucleoprotein expression) in Vero E6 cells; type: cell-based; settings: three days
Protocol: as §1, §2

[18] = system: SZ95 sebocytes; assay: Nile Red-assay, arachidonic acid-induced lipogenesis; type: cell-based, human; settings: 50 μM arachidonic acid, 48 h
Protocol: (§5) Human immortalized SZ95 sebocytes, originated from human facial sebaceous glands[50] were provided by prof. Christos C. Zouboulis, and were cultured in Sebomed® Basal Medium (Cat. No. F8205; Sigma-Aldrich) supplemented with 10% FBS (Gibco-Thermo Fisher Scientific), 1 mM CaCl2 (Cat. No. C7902; Sigma-Aldrich), 5 ng/ml human epidermal growth factor (Cat. No. E9644; Sigma-Aldrich), and MycoZap™ Plus-CL (1:500; Lonza). The medium was changed every other day, and cells were subcultured at 60–70% confluence.
For quantitative measurement of sebaceous (neutral) lipid content, SZ95 sebocytes (20,000 cells/well) were cultured in 96-well “black well/clear bottom” plates (Cat. No. 655090; Greiner Bio-One, Frickenhausen, Germany), and were treated with compounds in the presence or absence of arachidonic acid (AA; Cat. No. 90010; Cayman Chemical Company, Ann Arbor, MI, USA) or its vehicle (absolute ethanol) as indicated. Subsequently, supernatants were discarded, cells were washed twice with phosphate-buffered saline (PBS; 115 mM NaCl, 20 mM Na2HPO4, pH 7.4; all from Sigma-Aldrich), and 100 µl of a 1 µg/ml Nile Red (Cat. No. N3013; Sigma-Aldrich) solution in PBS was added to each well. The plates were then incubated at 37 °C for 30 min, and fluorescence was measured on FlexStation 3 multimode microplate reader (Molecular Devices, San Francisco, CA, USA). Results, measured in relative fluorescence units, are expressed as percentage of the vehicle (absolute ethanol; Cat. No. 20821.296; VWR International)-treated control regarded as 100%, using 485 nm excitation and 565 nm emission wavelengths.

[19] = system: SZ95 sebocytes; assay: Viability MTT-assay on sebocytes, 48 h; type: cell-based, human; settings: 30 μM
Protocol: as §5
The viability of HaCaT keratinocytes and SZ95 sebocytes was determined by MTT-assay[58] (Cat. No. M5655; Sigma-Aldrich) measuring the conversion of the tetrazolium salt to formazan by mitochondrial dehydrogenases. Cells were plated in 96-well plates (20,000 cells/well), and were treated as indicated. Cells were then incubated with 0.5 mg/ml MTT reagent for 3 h, and concentration of formazan crystals (as an indicator of number of viable cells) was determined colorimetrically at 565 nm by using FlexStation 3 multi-mode microplate reader (Molecular Devices). Results were expressed as percentage of vehicle-treated control regarded as 100%.

[20] = Enterococcus faecalis 51299 VanB
[21] = Staphylococcus epidermidis biofilm forming
[22] = Staphylococcus epidermidis mecA
[23] = Enterococcus faecalis 15 376 VanA
[24] = Severe acute respiratory syndrome coronavirus 2, Vero C1008, 72 h

Row | SMILES | MIC [1, 20] [µg/mL] | MIC ([2]; Enterococcus faecalis 29 212) [µg/mL] | MIC [3, 21] [µg/mL] | EC50 [4] [µM] | antiproliferative activity (in words) [5] | antiproliferative activity (in words) [6] | antiproliferative activity (in words) [7] | antiproliferative activity (in words) [8] | MIC [9, 22] [µg/mL] | MIC [10] [µg/mL] | MIC [11] [µg/mL] | MIC [12, 23] [µg/mL] | MIC [13] [µg/mL] | CC50 [14] [µM] | spontaneous, homeostatic sebaceous lipogenesis [16] | effect on the lipogenic effect of arachidonic acid (AA) [18] | viability (MTT signal intensity) [19] | EC50 [17] [µM] | other results
1 | CCCCCc1c2c(c(C/C=C(\C)CCC=C(C)C)c3c1CN(CCCC)CO3)OCN(CCCC)C2 [Compound 16b] | 64 (≈ 125 µM) | 64 (≈ 125 µM) | > 256 | > 7.7 | more active than CBG | more active than CBG | more active than CBG | more active than CBG | > 256 | > 256 | > 256 | > 256 | > 256 | 7.7 ± 3.2 | – | – | – | – | –
2 | CCCCCc1c(CN(CC)CC)c(O)c(C/C=C(\C)CCC=C(C)C)c(O)c1CN(CC)CC [Compound 21b] | – | – | – | – | – | – | – | – | – | > 256 | – | – | – | – | mimicked the previously reported weak lipogenic effect of CBG | suppress the effect of AA | rather increased MTT signal intensity | – | MIC ([1]; Enterococcus faecalis, 51299VANB): 64 µg/mL (≈ 131 µM); MIC ([2]; Enterococcus faecalis, 29212): 64 µg/mL (≈ 131 µM); MIC ([3]; Staphylococcus epidermidis): > 256 µg/mL; EC50 [4, 24]: 12 ± 0.99 µM; IC50 ([4]; Severe acute respiratory syndrome coronavirus 2, Vero C1008, read-out: IC50 (anti-SARS-CoV-2 activity, Figure 8)): 12 µM; CC50 [15]: > 100 µM; MIC ([9]; Staphylococcus epidermidis): > 256 µg/mL; MIC ([11]; Staphylococcus aureus): > 256 µg/mL; MIC ([12]; Enterococcus faecalis, 15376VANA): > 256 µg/mL; EC50 [17, 24]: > 100 µM; MIC ([13]; Staphylococcus aureus): > 256 µg/mL
3 | C#CCN1COc2c(c(CCCCC)cc(O)c2[C@@H]2C=C(C)CC[C@H]2C(=C)C)C1 [Compound 11] | 128 (≈ 325 µM) | 128 (≈ 325 µM) | > 256 | 17 ± 1.5 | None of the other tested CBD analogs (9, 11, and 12) exhibited substantial antiproliferative activity | None of the other tested CBD analogs (9, 11, and 12) exhibited substantial antiproliferative activity | None of the other tested CBD analogs (9, 11, and 12) exhibited substantial antiproliferative activity | None of the other tested CBD analogs (9, 11, and 12) exhibited substantial antiproliferative activity | > 256 | > 256 | > 256 | > 256 | > 256 | 77 ± 2.6 | – | – | – | 33 ± 1.4 | –
4 | CCCCCc1cc(O)c(C/C=C(\C)CCC=C(C)C)c2c1CN(CCCC)CO2 [Compound 16a] | – | – | – | – | – | – | – | – | – | – | – | – | – | – | mimicked the previously reported weak lipogenic effect of CBG | suppress the effect of AA | tended to suppress viability | – | –
5 | C=C(C)[C@@H]1CCC(C)=C[C@H]1c1c(O)cc(CCCCC)c2c1OCN(CCCC)C2 [Compound 8] | 2 (≈ 4.86 µM) | 2 (≈ 4.86 µM) | > 256 | 21 ± 3.7 | – | – | – | more sensitive | > 256 | > 256 | > 256 | > 256 | > 256 | > 100 | rather promote spontaneous, homeostatic sebaceous lipogenesis | mimic this lipostatic effect | cytotoxic effects | 31 ± 1.1 | inhibition of the proliferation (in words) ([8]; MCF7, 10 μM): much more potent than the parent CBD; promotion of spontaneous sebaceous lipogenesis, significance ([16]; 10 and 30 μM): statistically significant
6 | C#CCN1COc2c(C/C=C(\C)CCC=C(C)C)c(O)cc(CCCCC)c2C1 [Compound 18] | 64 (≈ 162 µM) | 64 (≈ 162 µM) | > 256 | 15 ± 0.94 | – | – | – | – | > 256 | > 256 | > 256 | > 256 | > 256 | ~28 | – | – | – | > 28 | –
